Assay results taken from patent US7135473B2, “Cyclic diamine compound with condensed-ring groups” (Kowa Co., Ltd., priority 2001, dated 2006).

Legend:
[1] = system: U937 cells adhered to HUVEC stimulated by TNFα; test: Inhibitory effect on cell adhesion, stimulation by TNFα; format: cell-based; conditions: Homo sapiens, compound at 1 μM, read-out: Inhibitory activity against cell adhesion, Percent inhibition (%), Stimulation by TNFα
Protocol: (§1) This test was conducted by reference to the method of Ross et al. (J. Biol. Chem., 267, 8537–8543(1992). More specifically, after human umbilical venous endothelial cells (HUVEC) were cultured on a 48-well plate to confluent growth, IL-1β or TNFα was added thereto. After culturing for 5 hours, U937, which is a human monocytic/histocytic cell fluorescence-labeled with PKH2(product of Dainippon Pharmaceutical Co., Ltd.), was added in a proportion of 1×10^6 cells per well. After the plate was left at rest at room temperature for 1 hour, unadhered U937 was washed out and lysed in 1% Triton X-100 to measure a remaining fluorescence intensity (excitation wavelength: 480 nm; measuring wavelength: 530 nm). HUVEC and U937 were cultured in EGM-2 (product of Sanko Junyaku K. K.) and 10% FCS-containing RPMI1640, respectively. Each test agent was added to HUVEC upon the addition of IL-1β or TNFα and to U937 24 hours prior to the cell adhesion test. The inhibitory activity was calculated out according to the equation [100−(C−B)/(A−B)×100(%)], wherein A is the number of U937 cells adhered to HUVEC stimulated by IL-1β or TNFα when no test agent was added, B is the number of U937 cells adhered to HUVEC not stimulated by IL-1β or TNFα when no test agent was added, and C is the number of U937 cells adhered to HUVEC stimulated by IL-1β or TNFα when the test agent was added. As control compounds, Test Compound 1 described in Japanese Patent Application Laid-Open No. 9–143075 and dilazep described in Japanese Patent Application Laid-Open No. 11–92382 were simultaneously evaluated.

[2] = system: U937 cells adhered to HUVEC stimulated by IL-1β; test: Inhibitory effect on cell adhesion, stimulation by IL-1β; format: cell-based; conditions: Homo sapiens, compound at 1 μM, read-out: Inhibitory activity against cell adhesion, Percent inhibition (%), Stimulation by IL-1β
Protocol: as §1

Structure (SMILES)	inhibition at 1 µM [1] [%]	inhibition at 1 µM [2] [%]
COc1cc(C(=O)OCCCN2CCCN(CCCOC(=O)c3cc(OC)c(OC)c(OC)c3)CC2)cc(OC)c1OC [Dilazep, dilazep, reference compound]	12	0
COc1cc2cc(CCN3CCCN(CCc4ccc5c(OC)c(OC)c(OC)cc5c4)CC3)ccc2c(OC)c1OC [Example 6, N,N′-bis[2-(5,6,7-trimethoxynaphthalen-2-yl)ethyl]homopiperazine]	69	57
COc1cc2nc(CN3CCN(Cc4nc5cc(OC)c(OC)c(OC)c5s4)CC3)sc2c(OC)c1OC [Example 32, N,N′-bis[(5,6,7-trimethoxybenzothiazol-2-yl)methyl]piperazine]	52	54
COc1cc2nc(CN3CCCN(Cc4nc5cc(OC)c(OC)c(OC)c5s4)CC3)sc2c(OC)c1OC [Example 33, N,N′-bis[(5,6,7-trimethoxybenzothiazol-2-yl)methyl]homopiperazine]	79	64
COc1cc2sc(CN3CCCN(Cc4cc5c(OC)c(OC)c(OC)cc5s4)CC3)cc2c(OC)c1OC [Example 41, N,N′-bis[(4,5,6-trimethoxybenzothiophen-2-yl)methyl]homopiperazine]	27	52
